Where two headings read alike, the source gives them in different places.

Data set [1] has as its system SMCs (human aortic smooth muscle cells). The data set is described as follows: Cell cytotoxicity, colorimetric MTT assay. How it is done:
SMCs (human aortic smooth muscle cells, Cambrex, USA) were cultured in SmGM-2 BulletKit (Cambex, USA) medium containing 10% FBS (Cambrex, USA), with 100× antibiotics (Cambex, USA) added thereto, and subcultured by using 1×trypsin-EDTA (Gibco BRL, USA) with maintaining the condition of 37° C., 5% CO2.
Before confirming whether ginsenoside and red ginseng extract affect the growth of muscle cell, the cell cytotoxicity was determined as the effect of cell cytotoxicity induced by ginsenosides Rk1, Rg3, and Rg5, red ginseng extract, and the present composition in muscle cell.
The cell cytotoxicity to the sample was determined by colorimetric MTT assay (Scudiero D. A. et al., Cancer Res., 48:4827-4833, 1988). That is, the muscle cell was plated to 96 wells microtiter tissue culture plate (Falcon) by 1×10^4 cells/ml, and then each well was treated with the sample, cultured for a certain period of time, treated with MTT sample, and melted with solubilization solution when formazan was formed, and the absorbance was determined at 540 nm.

The test system is the same in data set [2]. Nature of the data set: Cell proliferation ELISA BrdU assay. It counts as cell-based. Conditions: for inhibition at 5 µg/mL: Homo sapiens, at the concentration of 5 μg/ml, FIGS. 3 and 4, read-out: inhibition of the growth of muscle cell; for inhibition of the growth of muscle cell (in words): absorbance 450 nm, FIGS. 3 and 4. How it is done: To determine the effects of cell proliferation by the sample, Cell proliferation ELISA BrdU assay kit (Roche, USA) was purchased and used. Cells were put into 96 wells plate, treated with the sample after cultivation, and cultured for a certain period of time. At a certain point of time, BrdU labeling solution was added into the cells, which in turn were reacted at 37° C., in 5% CO2 for 2 hr. Then, FixDenat was added thereto, and the mixture was reacted at the room temperature for 30 min. And, Anti-BrdU-POD working solution was added thereto, and the mixture was reacted at the room temperature for 1 hr and 30 min. Afterwards, substrate solution was added thereto, and the mixture was reacted at the room temperature for 20 min. The reaction was stopped by using sulphuric acid, and then the absorbance was determined at 450 nm.

[3] abbreviates: MTT, absorbance 540 nm, proper concentration, FIGS. 1 and 2.

In the case of `CC(C)=CCC[C@](C)(O)[C@H]1CC[C@]2(C)[C@@H]1[C@H](O)C[C@@H]1[C@@]3(C)CC[C@H](O[C@@H]4O[C@H](CO)[C@@H](O)[C@H](O)[C@H]4O[C@@H]4O[C@H](CO)[C@@H](O)[C@H](O)[C@H]4O)C(C)(C)[C@@H]3CC[C@]12C` [Rg3, ginsenoside Rg3], the “cell cytotoxicity in muscle cell” value in data set [1] is reported as “no cell cytotoxicity was found”. Moreover, in data set [2], the inhibition at 5 µg/mL amounted to 50% and the “inhibition of the growth of muscle cell (in words)” value (shortened to “inhibition … (in words)”) is “inhibited the growth of muscle cell”.
As for `CC(C)=CC/C=C(/C)C1CCC2(C)C1C(O)CC1C3(C)CCC(OC4OC(CO)C(O)C(O)C4OC4OC(CO)C(O)C(O)C4O)C(C)(C)C3CCC12C` (centres unmarked) [Rg5, ginsenoside Rg5], in data set [1] (setting [3]), the “cell cytotoxicity in muscle cell” value is on record as “no cell cytotoxicity was found”. Besides, in data set [2], the inhibition at 5 µg/mL is 50% and the “inhibition … (in words)” value is “inhibited the growth of muscle cell”.
For `C=C(CCC=C(C)C)C1CCC2(C)C1C(O)CC1C3(C)CCC(OC4OC(CO)C(O)C(O)C4OC4OC(CO)C(O)C(O)C4O)C(C)(C)C3CCC12C` (centres unmarked) [Rk1, ginsenoside Rk1], in data set [1] (setting [3]), the “cell cytotoxicity in muscle cell” value is recorded as “no cell cytotoxicity was found”. In data set [2], the “inhibition … (in words)” value is recorded as “inhibited the growth of muscle cell”.

(Values after patent US20080311169A1, “Composition Comprising Ginsenosides for Treating or Preventing Angiostenosis and Restenosis” (priority 2004, published 2008).)
